In patent US10696686B2, “Herbicidally active (alkynyl-phenyl)-substituted cyclic dione compounds and derivatives thereof” (Syngenta Limited, priority 2013, dated 2020):

Tests used:
Assay in all cases: Biological Example 3 glasshouse assay using various adjuvant systems, post-emergence foliar spray
Assay type in all cases: in vivo
[1] = tested on: Brachiaria decumbens (BRADC); conditions: 8 g/ha, 14 DAA (A11: 14 or 15 DAA), adjuvant 0.5% v/v Adigor + 1.0% v/v AMS + 12.5% v/v IPA
Experimental: (§1) Post-emergence foliar spray application, 200 L/ha, usually one or two replicates for the weeds (depending on application rate), and two replicates for soybean.
(§2) Standard warm conditions (tropical), in glasshouse. Specifically, the glasshouse bay conditions are 24° C./18° C. day/night; 16/8 hours light/dark; 65% humidity.
(§3) The herbicidal application takes place at the following growth stages for plants which include inter alia one or more of the following plants (usually the herbicidal application takes place on at least the following plants: DIGSA, ELEIN, SETFA, ZEAMX, GLXMA Nikko, and GLXMA TMG133, and often also either BRADC or BRAPP):
Brachiaria decumbens (BRADC)—growth stage (GS) 12 or 13 (or GS 12)—or, if BRADC is not used, then usually Brachiaria platyphylla (BRAPP)—growth stage 12 or 13
(§4) Each test compound is applied with one of the following adjuvant systems (all percentages are final concentrations in the aqueous spray mixture):
(§5) Adjuvant system 1: 0.5% v/v Adigor™ *, 1.0% v/v AMS (ammonium sulphate) and 12.5% v/v IPA (isopropyl alcohol).
(§6) Adjuvant system 1A: 0.5% v/v Adigor™ * and 12.5% v/v IPA (isopropyl alcohol).
(§7) CAS Registry no. 166412-78-8), and is usually available from BASF. “Isononyl” in this context is thought to mean a mixture of two or more branched isomers of C9H19. […] A visual assessment of the % herbicidal damage is made 7 and 14 Days After herbicide Application (DAA) (or, in a minority of cases, 7 and 15 DAA), and the results are recorded as % visual herbicidal damage where 0%=no damage to plants and 100%=plant totally killed. *** Adjuvant system=either Adigor™ or Hexamoll DINCH™ or tris-(2-ethylhexyl) phosphate each at 0.5% v/v, and 12.5% v/v IPA (isopropyl alcohol), and 1.0% v/v AMS (ammonium sulphate); or 0.5% v/v Adigor™ and 12.5% v/v IPA (isopropyl alcohol); all percentages are final concentrations in the aqueous spray mixture. […]

[2] = tested on: Digitaria sanguinalis (DIGSA); conditions: 8 g/ha, 14 DAA (A11: 14 or 15 DAA), adjuvant 0.5% v/v Adigor + 1.0% v/v AMS + 12.5% v/v IPA
Experimental: as §1, §2, §3
Digitaria sanguinalis (DIGSA)—growth stage 12 or 13
as §4, §5, §6
(§8) CAS Registry no. […] A visual assessment of the % herbicidal damage is made 7 and 14 Days After herbicide Application (DAA) (or, in a minority of cases, 7 and 15 DAA), and the results are recorded as % visual herbicidal damage where 0%=no damage to plants and 100%=plant totally killed. *** Adjuvant system=either Adigor™ or Hexamoll DINCH™ or tris-(2-ethylhexyl) phosphate each at 0.5% v/v, and 12.5% v/v IPA (isopropyl alcohol), and 1.0% v/v AMS (ammonium sulphate); or 0.5% v/v Adigor™ and 12.5% v/v IPA (isopropyl alcohol); all percentages are final concentrations in the aqueous spray mixture. […]
The percentages of herbicidal damage/plant control, at 14 Days After herbicide Application (DAA) (or, in a minority of cases, at 15 DAA), for the Compounds tested and for some of the plants tested, were in the following percentage ranges. […] Phytotoxicity on Glycine max (GLXMA, Soybean) Cultivar “TMG133” Glycine max (GLXMA, soybean) cultivar “TMG133” is Roundup Ready™ glyphosate-tolerant soybean cultivar TMG133, and is typically available from Monsanto in Brazil. […]

Eleusine indica (ELEIN) = conditions: 8 g/ha, 14 DAA (A11: 14 or 15 DAA), adjuvant 0.5% v/v Adigor + 1.0% v/v AMS + 12.5% v/v IPA
Experimental: as §1, §2, §3
Eleusine indica (ELEIN)—growth stage 12 or 13
as §4, §5, §6, §8
(§9) The percentages of herbicidal damage/plant control, at 14 Days After herbicide Application (DAA) (or, in a minority of cases, at 15 DAA), for the Compounds tested and for some of the plants tested, were in the following percentage ranges. […] Phytotoxicity on Glycine max (GLXMA, Soybean) Cultivar “TMG133” Glycine max (GLXMA, soybean) cultivar “TMG133” is Roundup Ready™ glyphosate-tolerant soybean cultivar TMG133, and is typically available from Monsanto in Brazil.

Setaria faberi (SETFA) = conditions: 8 g/ha, 14 DAA (A11: 14 or 15 DAA), adjuvant 0.5% v/v Adigor + 1.0% v/v AMS + 12.5% v/v IPA
Experimental: as §1, §2, §3
Setaria faberi (SETFA)—growth stage 12 or 13
as §4, §5, §6, §8, §9

[3] = tested on: Zea mays (ZEAMX, maize, corn) cultivar Garland; conditions: 8 g/ha, 14 DAA (A11: 14 or 15 DAA), adjuvant 0.5% v/v Adigor + 1.0% v/v AMS + 12.5% v/v IPA
Experimental: as §1, §2, §3
Zea mays (ZEAMX, maize/corn, e.g. can occur as volunteer corn) cultivar “Garland”—growth stage 12 or 13
as §4, §5, §6, §7

[4] = tested on: Glycine max (GLXMA, soybean) cultivar Nikko; conditions: post-emergence, 14 DAA (A11: 14 or 15 DAA), adjuvant 0.5% v/v Adigor + 1.0% v/v AMS + 12.5% v/v IPA
Experimental: as §1, §2, §3
Glycine max (GLXMA, soybean) cultivar “Nikko”—growth stage: 1st trifoliate
as §4, §5, §6
(§10) CAS Registry no. 166412-78-8), and is usually available from BASF. “Isononyl” in this context is thought to mean a mixture of two or more branched isomers of C9H19. Method: Seeds of the weed (including volunteer) plants, typically including inter alia Digitaria sanguinalis (DIGSA), Eleusine indica (ELEIN), Setaria faberi (SETFA), Zea mays (ZEAMX, corn), and sometimes also [either Brachiaria decumbens (BRADC) or Brachiaria platyphylla (BRAPP)], are sown in seed trays (troughs) containing clay loam soil (pH 7.0, 2.2% organic matter, “Trough Mix A”); and soybean seed is sown in pots containing the same soil with 3 soybean seedlings per pot. The plants are sprayed with the test herbicide when they reach the growth stages mentioned above. The test herbicidal solutions are prepared by mixing the appropriate aliquots of the test substance(s) and one of the adjuvant systems indicated above *** in deionised water to give the desired treatment concentration. The herbicidal application is made as a foliar spray, using a tracksprayer. Following the herbicidal application, the plants are watered twice per day for the duration of the test. A visual assessment of the % herbicidal damage is made 7 and 14 Days After herbicide Application (DAA) (or, in a minority of cases, 7 and 15 DAA), and the results are recorded as % visual herbicidal damage where 0%=no damage to plants and 100%=plant totally killed. *** Adjuvant system=either Adigor™ or Hexamoll DINCH™ or tris-(2-ethylhexyl) phosphate each at 0.5% v/v, and 12.5% v/v IPA (isopropyl alcohol), and 1.0% v/v AMS (ammonium sulphate); or 0.5% v/v Adigor™ and 12.5% v/v IPA (isopropyl alcohol); all percentages are final concentrations in the aqueous spray mixture.
(§11) Compounds A8, A11 and A17, which are compounds of formula (I) according to the present invention, were tested in a test method substantially as described above.
(§12) Compound A8 was tested using the 0.5% v/v Adigor™+12.5% v/v IPA adjuvant system. Compounds A11 and A17 were tested using the 0.5% v/v Adigor™+1.0% v/v AMS+12.5% v/v IPA adjuvant system.
The percentages of herbicidal damage/plant control, at 14 Days After herbicide Application (DAA) (or, in a minority of cases, at 15 DAA), for the Compounds tested and for some of the plants tested, were in the following percentage ranges. At least for Compounds A8 and A17, the phytotoxicity results shown herein are the average of 2 repetitions (for the grassy weeds, corn and soybean). […] Control of Zea mays (ZEAMX, Corn), a Warm-Climate (Warm-Season) Grassy Plant Zea mays (ZEAMX, maize, corn) is often present as a “volunteer” weed (“volunteer” corn) in fields where it was planted as a crop in preceding growing season(s) and where the present field crop is not corn. […]

[5] = tested on: Glycine max (GLXMA, soybean) cultivar TMG133; conditions: 14 DAA (A11: 14 or 15 DAA), adjuvant 0.5% v/v Adigor + 1.0% v/v AMS + 12.5% v/v IPA
Experimental: as §1, §2, §3
Glycine max (GLXMA, soybean) cultivar “TMG133”—which is Roundup Ready™ glyphosate-tolerant soybean cultivar TMG133 (typically available from Monsanto in Brazil)—growth stage: 1st trifoliate.
as §4, §5, §6, §10, §11, §12
The percentages of herbicidal damage/plant control, at 14 Days After herbicide Application (DAA) (or, in a minority of cases, at 15 DAA), for the Compounds tested and for some of the plants tested, were in the following percentage ranges. […]

With `CC#Cc1cc(F)c(C2C(=O)CCCC2=O)c(OC)c1` [Compound A17] as the compound, how does the “percentage control of (phytotoxicity on) Brachiaria decumbens (BRADC)” value [1] read?
Its value is 0%.

What about the “percentage control of Digitaria sanguinalis (DIGSA)” value [2] of the same compound?
Its value is 0%.

And the “percentage control of Eleusine indica (ELEIN)” value (Eleusine indica (ELEIN))?
The value was 0%.

And the “percentage control of Setaria faberi (SETFA)” value (Setaria faberi (SETFA))?
Its value is 0%.

And the “percentage control of Zea mays (ZEAMX, maize, corn)” value [3]?
The value was 0%.

What about the “percentage phytotoxicity on Glycine max (GLXMA, soybean) cultivar Nikko” value ([4]; 120 g/ha) of the same compound?
The value was 5%.

What about the “percentage phytotoxicity on Glycine max (GLXMA, soybean) cultivar Nikko” value ([4]; 240 g/ha) of the same compound?
The value was 7.5%.

What about the “percentage phytotoxicity on Glycine max (GLXMA, soybean) cultivar TMG133” value ([5]; 120 g/ha) of the same compound?
The value was 5%.

And the “percentage phytotoxicity on Glycine max (GLXMA, soybean) cultivar TMG133” value ([5]; 240 g/ha)?
The value was 7.5%.
